Test results taken from ChEMBL document CHEMBL3885861, “Open TG-GATES”.

Species: Rattus norvegicus
Experiment: Open TG-GATES - Regimen: Daily Repeat
Type: toxicity, organism-based, Sprague-Dawley
Parameters: regimen Daily Repeat, gender Male, age 6 weeks
Details: in vivo, iv, 0 mg/kg, route intravenous injection, dose level Control; for APTT / Bas / Eos / Fbg / Hb / Ht / Lym / MCH / MCHC / MCV / Mono / Neu / PT / Plat / RBC / Ret / WBC: tissue Blood; for KIDNEY_L / KIDNEY_R / KIDNEY_TOTAL: tissue Kidney; for LIVER: tissue Liver; for A/G / ALP / ALT / AST / BUN / CRE / Ca / Cl / DBIL / GLC / IP / K / LDH / Na / PL / RALB / TBIL / TC / TG / TP / gamma-GTP: tissue Plasma

Question: What does the source list for `NCCBr` [BROMOETHANAMINE]?
Answer: TERMINAL_BW (72 h, time 3 day): 229.6 g; APTT (72 h, time 3 day): 23.7 s; Bas (72 h, time 3 day): 0%; Eos (72 h, time 3 day): 1%; Fbg (72 h, time 3 day): 290.6 mg/dL; Hb (72 h, time 3 day): 13.5 g/dL; Ht (72 h, time 3 day): 39.3%; Lym (72 h, time 3 day): 82.2%; MCH (72 h, time 3 day): 21 pg; MCHC (72 h, time 3 day): 34.4%; MCV (72 h, time 3 day): 61.2 fL; Mono (72 h, time 3 day): 2%; Neu (72 h, time 3 day): 13.6%; PT (72 h, time 3 day): 16.3 s; Plat (72 h, time 3 day): 122.8 x10_4/uL; RBC (72 h, time 3 day): 641.2 x10_4/ul; Ret (72 h, time 3 day): 4.8%; WBC (72 h, time 3 day): 116.1 x10_2/uL; KIDNEY_L (72 h, time 3 day): 1 g; KIDNEY_R (72 h, time 3 day): 1 g; KIDNEY_TOTAL (72 h, time 3 day): 2 g; LIVER (72 h, time 3 day): 10.3 g; A/G (72 h, time 3 day): 1.2; ALP (72 h, time 3 day): 1818.6 IU/L; ALT (72 h, time 3 day): 45.2 IU/L; AST (72 h, time 3 day): 72.2 IU/L; BUN (72 h, time 3 day): 16 mg/dL; CRE (72 h, time 3 day): 0.2 mg/dL; Ca (72 h, time 3 day): 10.7 mg/dL; Cl (72 h, time 3 day): 106 meq/L; DBIL (72 h, time 3 day): 0 mg/dL; GLC (72 h, time 3 day): 181 mg/dL; IP (72 h, time 3 day): 7.7 mg/dL; K (72 h, time 3 day): 4.7 meq/L; LDH (72 h, time 3 day): 170 IU/L; Na (72 h, time 3 day): 141.4 meq/L; PL (72 h, time 3 day): 132 mg/dL; RALB (72 h, time 3 day): 3 g/dL; TBIL (72 h, time 3 day): 0.006 mg/dL; TC (72 h, time 3 day): 68.4 mg/dL; TG (72 h, time 3 day): 76 mg/dL; TP (72 h, time 3 day): 5.5 g/dL; gamma-GTP (72 h, time 3 day): 1.4 IU/L; TERMINAL_BW ([…], time 7 day): 257 g; TERMINAL_BW ([…], time 14 day): 314.6 g; TERMINAL_BW ([…], time 28 day): 359.9 g; APTT ([…], time 7 day): 23.2 s; Bas ([…], time 7 day): 0%; Eos ([…], time 7 day): 1%; Fbg ([…], time 7 day): 288.8 mg/dL; Hb ([…], time 7 day): 13.7 g/dL; Ht ([…], time 7 day): 39.5%; Lym ([…], time 7 day): 82.8%; MCH ([…], time 7 day): 21 pg; MCHC ([…], time 7 day): 34.6%; MCV ([…], time 7 day): 60.9 fL; Mono ([…], time 7 day): 2.4%; Neu ([…], time 7 day): 13.2%; PT ([…], time 7 day): 15.9 s; Plat ([…], time 7 day): 132.6 x10_4/uL; RBC ([…], time 7 day): 649.4 x10_4/ul; Ret ([…], time 7 day): 4.4%; WBC ([…], time 7 day): 113.7 x10_2/uL; APTT ([…], time 14 day): 23.9 s; Bas ([…], time 14 day): 0%; Eos ([…], time 14 day): 1.2%; Fbg ([…], time 14 day): 301 mg/dL; Hb ([…], time 14 day): 14 g/dL; Ht ([…], time 14 day): 40.1%; Lym ([…], time 14 day): 85%; MCH ([…], time 14 day): 20.6 pg; MCHC ([…], time 14 day): 34.9%; MCV ([…], time 14 day): 59 fL; Mono ([…], time 14 day): 2.2%; Neu ([…], time 14 day): 10.6%; PT ([…], time 14 day): 15.9 s; Plat ([…], time 14 day): 117.9 x10_4/uL; RBC ([…], time 14 day): 680.2 x10_4/ul; Ret ([…], time 14 day): 3.6%; WBC ([…], time 14 day): 89.2 x10_2/uL; APTT ([…], time 28 day): 25.5 s; Bas ([…], time 28 day): 0%; Eos ([…], time 28 day): 1.8%; Fbg ([…], time 28 day): 297 mg/dL; Hb ([…], time 28 day): 15.7 g/dL; Ht ([…], time 28 day): 42.5%; Lym ([…], time 28 day): 84.8%; MCH ([…], time 28 day): 20.6 pg; MCHC ([…], time 28 day): 36.9%; MCV ([…], time 28 day): 55.8 fL; Mono ([…], time 28 day): 2%; Neu ([…], time 28 day): 10.8%; PT ([…], time 28 day): 16.7 s; Plat ([…], time 28 day): 100.6 x10_4/uL; RBC ([…], time 28 day): 762.2 x10_4/ul; Ret ([…], time 28 day): 2.3%; WBC ([…], time 28 day): 126.1 x10_2/uL; KIDNEY_L ([…], time 7 day): 1.1 g; KIDNEY_R ([…], time 7 day): 1.1 g; KIDNEY_TOTAL ([…], time 7 day): 2.2 g; KIDNEY_L ([…], time 14 day): 1.3 g; KIDNEY_R ([…], time 14 day): 1.3 g; KIDNEY_TOTAL ([…], time 14 day): 2.6 g; KIDNEY_L ([…], time 28 day): 1.3 g; KIDNEY_R ([…], time 28 day): 1.4 g; KIDNEY_TOTAL ([…], time 28 day): 2.7 g; LIVER ([…], time 7 day): 11.9 g; LIVER ([…], time 14 day): 13.5 g; LIVER ([…], time 28 day): 13.9 g; A/G ([…], time 7 day): 1.1; ALP ([…], time 7 day): 1565.4 IU/L; ALT ([…], time 7 day): 39 IU/L; AST ([…], time 7 day): 68.2 IU/L; BUN ([…], time 7 day): 17.6 mg/dL; CRE ([…], time 7 day): 0.2 mg/dL; Ca ([…], time 7 day): 10.7 mg/dL; Cl ([…], time 7 day): 104.6 meq/L; DBIL ([…], time 7 day): 0 mg/dL; GLC ([…], time 7 day): 188.2 mg/dL; IP ([…], time 7 day): 6.9 mg/dL; K ([…], time 7 day): 4.7 meq/L; LDH ([…], time 7 day): 190.6 IU/L; Na ([…], time 7 day): 139.8 meq/L; PL ([…], time 7 day): 138.6 mg/dL; RALB ([…], time 7 day): 2.9 g/dL; TBIL ([…], time 7 day): 0.008 mg/dL; TC ([…], time 7 day): 71.2 mg/dL; TG ([…], time 7 day): 94.8 mg/dL; TP ([…], time 7 day): 5.5 g/dL; gamma-GTP ([…], time 7 day): 2.4 IU/L; A/G ([…], time 14 day): 1.1; ALP ([…], time 14 day): 1268.2 IU/L; ALT ([…], time 14 day): 42 IU/L; AST ([…], time 14 day): 72.8 IU/L; BUN ([…], time 14 day): 18.4 mg/dL; CRE ([…], time 14 day): 0.2 mg/dL; Ca ([…], time 14 day): 10.9 mg/dL; Cl ([…], time 14 day): 106 meq/L; DBIL ([…], time 14 day): 0 mg/dL; GLC ([…], time 14 day): 183.8 mg/dL; IP ([…], time 14 day): 7.4 mg/dL; K ([…], time 14 day): 4.5 meq/L; LDH ([…], time 14 day): 176 IU/L; Na ([…], time 14 day): 143.8 meq/L; PL ([…], time 14 day): 139.2 mg/dL; RALB ([…], time 14 day): 3.1 g/dL; TBIL ([…], time 14 day): 0.004 mg/dL; TC ([…], time 14 day): 71.6 mg/dL; TG ([…], time 14 day): 97.8 mg/dL; TP ([…], time 14 day): 5.8 g/dL; gamma-GTP ([…], time 14 day): 2.4 IU/L; A/G ([…], time 28 day): 1.1; ALP ([…], time 28 day): 1244.2 IU/L; ALT ([…], time 28 day): 39.2 IU/L; AST ([…], time 28 day): 67.8 IU/L; BUN ([…], time 28 day): 19.6 mg/dL; CRE ([…], time 28 day): 0.2 mg/dL; Ca ([…], time 28 day): 10.4 mg/dL; Cl ([…], time 28 day): 104.4 meq/L; DBIL ([…], time 28 day): 0 mg/dL; GLC ([…], time 28 day): 203.4 mg/dL; IP ([…], time 28 day): 6.4 mg/dL; K ([…], time 28 day): 4.2 meq/L; LDH ([…], time 28 day): 147 IU/L; Na ([…], time 28 day): 144.2 meq/L; PL ([…], time 28 day): 137 mg/dL; RALB ([…], time 28 day): 3.1 g/dL; TBIL ([…], time 28 day): 0.01 mg/dL; TC ([…], time 28 day): 66 mg/dL; TG ([…], time 28 day): 124.4 mg/dL; TP ([…], time 28 day): 6 g/dL; gamma-GTP ([…], time 28 day): 2.8 IU/L
